Assay [1] concerns the target T1, ctClpP1P2 (Chlamydia trachomatis, UniProt O84712+P38002).
T1 construct: gene clpP1; full-length, C-terminal Strep-tag on both (kept), expressed in E. coli dAPX-1 (clpP/clpX/clpA deleted), mixed 1:1; hetero-tetradecamer
The assay can be described thus: peptidase assay, fluorescence (AMC release). Format: biochemical. Conditions: 100 µM substrate, 3 µM ClpP, no ADEP1, pH 7.6, 32 °C.

Assay [2] deals with T1, ctClpP1P2. Nature of the assay: Suc-LY-AMC peptidase assay, fluorescence (AMC release). It counts as biochemical. The note with it: activator; 15 µM ADEP1, 3 µM ClpP, 100 µM Suc-LY-AMC, no ClpX, pH 7.6, 32 °C; binds preferably via ClpP2 hydrophobic pocket.

*1 amine or outer side, *2 acyl side, *3 side chain or, on linkers, in order; H or OH if unused. Where a SMILES comes first, the peptide text is derived from it. The star is where a group is joined. AMC = Cc1cc(=O)oc2cc(N*)ccc12; Suc = O=C(CCC(=O)[*:2])[*:1]

T1 sequence (P38002 2-192): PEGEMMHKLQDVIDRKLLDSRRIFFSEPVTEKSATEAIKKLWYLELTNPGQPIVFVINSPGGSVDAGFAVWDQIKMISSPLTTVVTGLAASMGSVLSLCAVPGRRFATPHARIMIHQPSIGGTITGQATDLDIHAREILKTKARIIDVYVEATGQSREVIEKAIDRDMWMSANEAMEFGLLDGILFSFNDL
T1 sequence (O84712 whole entry): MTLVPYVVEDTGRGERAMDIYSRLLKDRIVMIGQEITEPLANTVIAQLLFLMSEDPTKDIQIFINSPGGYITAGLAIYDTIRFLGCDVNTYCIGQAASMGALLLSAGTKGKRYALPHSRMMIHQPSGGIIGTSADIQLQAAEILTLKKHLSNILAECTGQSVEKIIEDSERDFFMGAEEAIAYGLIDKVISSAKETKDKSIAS

Turning to `Cc1cc(=O)oc2cc(NC(=O)[C@H](Cc3ccc(O)cc3)NC(=O)[C@H](CC(C)C)NC(=O)CCC(=O)O)ccc12` [Suc-LY-AMC] (Suc-Leu-Tyr-{AMC}), the “peptidase assay, fluorescence (AMC release)” value in assay [1] is given as “when combined, ctClpP1P2 steadily hydrolysed Suc-LY-AMC”.

As for ADEP1, the “fold increase in peptidase activity at 15 μM” value in assay [2] is reported as greater than 2.5 fold.

The values above are taken from publication PMC6773864, “The functional ClpXP protease of Chlamydia trachomatis requires distinct clpP genes from separate genetic loci” (Scientific Reports, 2019).
